Results taken from patent publication US20190275052A1, “COMBINATION THERAPY OF AN HBV CAPSID ASSEMBLY INHIBITOR AND A NUCLEOS(T)IDE ANALOGUE” (Hoffmann-La Roche Inc., priority 2016, published 2019).
Where two headings read alike, the source gives them in different places.

Tests used:
[1] = test system: HBV; assay: anti-HBV activity in HBV infected differentiated HepaRG cells (HBV DNA in supernatant by qPCR; checkerboard combination, isobologram model); format: cell-based, HBV (genotype D); conditions: Hepatitis B virus, 264 h, mean of 3 independent experiments
Description: HepG2.2.15 cells were cultured in DMEM+Glutamax I (Gibco, #21885) supplemented with 10% FBS, 1% Pen/Strep (Gibco, #15140) and G-418 (250 μg/mL) and used for production of infectious HBV (genotype D). 90% confluent cells from three T175 flasks were trypsinized and transferred into one collagen coated hyperflask (550 mL). Once the cells are confluent, medium was changed to DMEM+Glutamax I with 1% DMSO and 2.5% FBS. Once the cells were slightly over confluent, medium was changed to DMEM/F12+Glutamax I (Gibco, #31331) supplemented with MEM non-essential amino acids (6 mL, Gibco, #11140), Pen/Strep (6 mL), sodium pyruvate (6 mL), DMSO (9 mL) and FBS (10 mL) (all per 500 mL medium). Medium was changed every 3 days and supernatants were harvested for 2 weeks. Virus was concentrated from supernatants by PEG precipitation and the titer (genome equivalent (GE)/mL) was determined by qPCR. Briefly, supernatants were mixed with 40% PEG solution at a ratio of 4:1, incubated on a shaker at 4° C. overnight and then centrifuged using 50 mL falcon tubes at 4° C. for one hour at 3724 g (RCF). The supernatant was discarded and the centrifugation step was repeated with new supernatant reusing the tubes until all PEG-precipitated supernatant was processed. The pellets were re-suspended in William's E Medium (Gibco, #22551) at a concentration of 10^7-10^9 genome equivalents (GE) per mL and frozen at −80° C. DNA copy number calculation was based on a standard curve generated from HBV plasmid dilutions with known concentrations.
HepaRG cells (Biopredic International, Saint-Gregoire, France) were cultured in working growth medium (500 mL Willams E Medium with 50 mL HepaRG Growth supplement from Biopredic, 5 mL Glutamax-I (Gibco, #35050) and 5 mL Pen/Strep) for 2 weeks. After 2 weeks medium was changed to differentiation medium containing 1.8% DMSO (500 mL Willams E Medium with 50 mL HepaRG Growth supplement from Biopredic, 5 mL Pen/Strep, 5 mL Glutamax-I and 9 mL DMSO). Medium was changed twice a week up to 2 weeks. Once fully differentiated, cells were trypsinized and seeded into collagenated 96 well plates (50,000 cells/well in 100 μL) in differentiation medium. Cells were cultured at least 5 days in the 96 well plates before they were infected with HBV.
For HBV infection of differentiated HepaRG cells, differentiation medium was removed and new differentiation medium (120 μL/well) containing 4% PEG-8000 and virus stock (20 to 30 GE/cell) was added. Cells were cultured at 37° C. for 16 to 20 h before medium was removed, cells were washed 4 times with PBS and new differentiation medium (120 μL/well) was added.
At day 4 post infection, medium was removed and 100 μL new differentiation medium was added to each well. 3-fold serial dilutions (5 μL compound to 10 μL DMSO) of Drug A and Drug B were prepared in 100% DMSO starting with 15 μL undiluted compound solution (400-fold concentration of highest test concentration). 5 μL of drug A and B dilutions were then added to 990 μL medium (containing 0.8% DMSO) in a 96 deep well plate in a fashion according to the design shown in Table 3. 100 μL thereof were added to the HepaRG cells with a final DMSO concentration of 1.8%. Drug A tested was Compound 6; Drug B tested was Compound 1, Compound 2, Compound 3, Compound 4 or Compound 5. The concentration ranges tested were 1 nM to 0.01 nM for Compound 6, and 300 nM to 0.412 nM for Compound 1 to 5. Medium was replaced by new medium with compound at day 7 post infection and at day 11 post infection cell supernatants were harvested and directly used for HBV DNA extraction or stored at −20° C. Cell viability of the cells was determined using the cell viability assay described below.
HBV DNA from HepaRG cell supernatants was extracted using the MagNA Pure 96 (Roche) robot. 100 μL of the supernatants were mixed in a processing cartridge with 200 μL MagNA Pure 96 external lysis buffer (Roche, Cat. No. 06374913001) and incubated for 10 minutes. […]

[2] = test system: HBV; conditions: HBV infected transgenic or humanized mice; Deres 2003, Brezillon 2011; cited from earlier work
[3] = individual compound alone, from the combination studies, HBV DNA in supernatant day 11 post infection, read-out: EC50 ± SD (n) Drug A

Compound	EC50 [1, 3] [nM]	also measured
COC(=O)C1=C(CN2CCN3C(=O)N(CC(C)(C)C(=O)O)CC3C2)NC(c2nccs2)=N[C@H]1c1ccc(F)cc1Cl (stereo in doubt) [Compound 5, 3-[(8aS)-7-[[(4R)-4-(2-chloro-4-fluoro-phenyl)-5-methoxycarbonyl-2-thiazol-2-yl-1,4-dihydropyrimidin-6-yl]methyl]-3-oxo-5,6,8,8a-tetrahydro-1H-imidazo[1,5-a]pyrazin-2-yl]-2,2-dimethyl-propanoic acid]	24.8	–
COC(=O)C1=C(C)NC(c2ncc(F)cc2F)=N[C@H]1c1ccc(F)cc1Cl [Bay 41-4109]	–	in vivo efficacy (HBV DNA reduction) [2]: demonstrated in vivo efficacy with HBV DNA reduction
COC(=O)C1=C(CN2CCOC[C@H]2C(=O)O)NC(c2nccs2)=N[C@H]1c1ccc(F)cc1Cl [Compound 1, (S)-4-[(R)-6-(2-Chloro-4-fluoro-phenyl)-5-methoxycarbonyl-2-thiazol-2-yl-3,6-dihydro-pyrimidin-4-ylmethyl]-morpholine-3-carboxylic acid]	19.9	–
CCOC(=O)C1=C(CN2CCN3C(=O)N(CC(C)(C)C(=O)O)C[C@@H]3C2)NC(c2nccs2)=N[C@H]1c1cccc(F)c1C [Compound 2, 3-[(8aS)-7-[[(4S)-5-ethoxycarbonyl-4-(3-fluoro-2-methyl-phenyl)-2-thiazol-2-yl-1,4-dihydropyrimidin-6-yl]methyl]-3-oxo-5,6,8,8a-tetrahydro-1H-imidazo[1,5-a]pyrazin-2-yl]-2,2-dimethyl-propanoic acid]	5.8	–
CCOC(=O)C1=C(CN2CCN3C(=O)N(CC(C)(C)C(=O)O)C[C@@H]3C2)NC(c2nccs2)=N[C@H]1c1cccc(F)c1Cl [Compound 3, 3-[(8aS)-7-[[(4R)-4-(2-chloro-3-fluoro-phenyl)-5-ethoxycarbonyl-2-thiazol-2-yl-1,4-dihydropyrimidin-6-yl]methyl]-3-oxo-5,6,8,8a-tetrahydro-1H-imidazo[1,5-a]pyrazin-2-yl]-2,2-dimethyl-propanoic acid]	7.5	–
COC(=O)C1=C(CN2CCN3C(=O)N(CC(C)(C)CC(=O)O)C[C@@H]3C2)NC(c2nccs2)=N[C@H]1c1ccc(F)cc1Cl [Compound 4, 4-[(8aS)-7-[[(4R)-4-(2-chloro-4-fluoro-phenyl)-5-methoxycarbonyl-2-thiazol-2-yl-1,4-dihydropyrimidin-6-yl]methyl]-3-oxo-5,6,8,8a-tetrahydro-1H-imidazo[1,5-a]pyrazin-2-yl]-3,3-dimethyl-butanoic acid]	16.2	–
C=C1[C@H](CO)[C@@H](O)C[C@@H]1n1cnc2c(=O)[nH]c(N)nc21 [Compound 6, Entecavir, reference compound]	–	EC50 ([1]; Compound 6 alone, from the combination study with the Drug A of the same row, HBV DNA day 11 post infection, read-out: EC50 ± SD (n) Drug B): 0.07 nM
